# From publication PMC9069406 (Acta Pharmaceutica Sinica. B, 2021)
# Tested on: 4T1 (murine TNBC) cells
# Assay: TNBC allograft model
# Type: in vivo, mice
# Details: 0.5 mg/kg i.p. daily, 18 days
smiles,measurement,value
N.N.[Cl][Pt][Cl] [cisplatin],reduction of average tumor weight at sacrifice,25.2%
